Source: ChEMBL document CHEMBL1201862, “PubChem BioAssay data set” (2004)
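Where inhibition never reached the appropriate level, the endpoint shown equals the highest concentration tested. Otherwise, values were interpolated linearly from a five-concentration, 48-hour dose response in 96-well plates. GI50: concentration for 50% inhibition of growth.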 Calls of active or inactive are those of the source. Rule as the data show it: active = GI50 up to about 1.1 µM and inactive = higher.

Assays:
Test in all cases: NCI anticancer screen, dose series, 48 h
SNB-19 = test system: SNB-19
KM12 = test system: KM12
SR = test system: SR
SW-620 = test system: SW-620
NCI-H460 = test system: NCI-H460
KM-20L2 = test system: KM-20L2
ACHN = test system: ACHN
OVCAR-5 = test system: OVCAR-5
TK-10 = test system: TK-10
HCC 2998 = test system: HCC 2998
OVCAR-8 = test system: OVCAR-8
HCT-116 = test system: HCT-116
A498 = test system: A498
HOP-62 = test system: HOP-62
HOP-92 = test system: HOP-92
A549 = test system: A549
SN12C = test system: SN12C
UO-31 = test system: UO-31
XF498 = test system: XF498
SNB-75 = test system: SNB-75
NCI-H522 = test system: NCI-H522
HCT-15 = test system: HCT-15
Malme-3M = test system: Malme-3M
RXF 393 = test system: RXF 393
SK-MEL-5 = test system: SK-MEL-5
CAKI-1 = test system: CAKI-1
DMS-114 = test system: DMS-114
SF-539 = test system: SF-539
SK-MEL-28 = test system: SK-MEL-28
SK-OV-3 = test system: SK-OV-3
LOX IMVI = test system: LOX IMVI
EKVX = test system: EKVX
DLD-1 = test system: DLD-1
U-251 = test system: U-251
LXFL 529 = test system: LXFL 529
SF-295 = test system: SF-295
IGROV-1 = test system: IGROV-1
CCRF-CEM = test system: CCRF-CEM
COLO 205 = test system: COLO 205
HL-60 = test system: HL-60
NCI-H226 = test system: NCI-H226
M14 = test system: M14
HT-29 = test system: HT-29
M19-MEL = test system: M19-MEL
RPMI-8226 = test system: RPMI-8226
NCI-H23 = test system: NCI-H23
UACC-62 = test system: UACC-62
OVCAR-3 = test system: OVCAR-3
786-0 = test system: 786-0
UACC-257 = test system: UACC-257
MOLT-4 = test system: MOLT-4
K562 = test system: K562
SF-268 = test system: SF-268
HOP-18 = test system: HOP-18
SNB-78 = test system: SNB-78
SK-MEL-2 = test system: SK-MEL-2
OVCAR-4 = test system: OVCAR-4
DMS-273 = test system: DMS-273

Measured: GI50

Cc1cccc(C)c1NC(=O)CCC(=O)NNC(=O)c1cc(O)c2ccccc2c1
active: A498 0.344 µM
inactive: SNB-19 23.9 µM | KM12 99.1 µM | SR 28.2 µM | SW-620 40 µM | NCI-H460 27.6 µM | KM-20L2 34.4 µM | ACHN 37.2 µM | OVCAR-5 32.7 µM | TK-10 70.1 µM | HCC 2998 51.9 µM | OVCAR-8 20.7 µM | HCT-116 31.9 µM | HOP-62 37.9 µM | HOP-92 > 100 µM | A549 64.7 µM | SN12C 78.7 µM | UO-31 32.1 µM | XF498 50.6 µM | SNB-75 > 100 µM | NCI-H522 26.3 µM | Malme-3M 72.1 µM | RXF 393 5.35 µM | SK-MEL-5 32.3 µM | CAKI-1 31.8 µM | DMS-114 21.8 µM | SF-539 27.9 µM | SK-MEL-28 44.8 µM | SK-OV-3 97.9 µM | LOX IMVI 25.1 µM | EKVX 42.3 µM | DLD-1 34.9 µM | U-251 48.8 µM | LXFL 529 29.6 µM | SF-295 24 µM | IGROV-1 30.4 µM | CCRF-CEM 12.2 µM | COLO 205 18.7 µM | HL-60 27.8 µM | NCI-H226 > 100 µM | M14 31.4 µM | HT-29 58.3 µM | M19-MEL 35.2 µM | RPMI-8226 56.8 µM | NCI-H23 26.3 µM | UACC-62 25.6 µM | OVCAR-3 24.8 µM | 786-0 38 µM | UACC-257 44.5 µM | MOLT-4 19.5 µM | K562 23 µM | SF-268 27.6 µM | HOP-18 11.6 µM
25.3 µM: HCT-15

COC(=O)/C(C#N)=C1\CCC(Nc2cccc(C(F)(F)F)c2)N1C (configuration not stated)
inactive: SNB-19 > 100 µM | KM12 59.6 µM | SW-620 > 100 µM | NCI-H460 > 100 µM | KM-20L2 56 µM | ACHN 61.8 µM | OVCAR-5 > 100 µM | TK-10 > 100 µM | HCC 2998 > 100 µM | OVCAR-8 > 100 µM | HCT-116 > 100 µM | SNB-78 > 100 µM | HOP-62 > 100 µM | A549 > 100 µM | SN12C > 100 µM | UO-31 63.1 µM | SK-MEL-2 > 100 µM | XF498 66.2 µM | SNB-75 43.3 µM | NCI-H522 > 100 µM | Malme-3M > 100 µM | RXF 393 46.1 µM | CAKI-1 > 100 µM | DMS-114 > 10 µM | OVCAR-4 > 100 µM | SF-539 > 100 µM | SK-MEL-28 > 100 µM | SK-OV-3 84.3 µM | LOX IMVI > 100 µM | EKVX > 100 µM | DLD-1 57.5 µM | U-251 > 100 µM | LXFL 529 74 µM | SF-295 > 100 µM | IGROV-1 > 100 µM | CCRF-CEM > 100 µM | HL-60 61.7 µM | NCI-H226 > 100 µM | M14 > 100 µM | HT-29 > 100 µM | RPMI-8226 > 100 µM | NCI-H23 72.1 µM | UACC-62 61 µM | OVCAR-3 > 100 µM | 786-0 > 100 µM | UACC-257 > 100 µM | MOLT-4 51.6 µM | K562 45.8 µM | SF-268 > 100 µM | HOP-18 > 100 µM

O=C1/C(=N\O)c2ccccc2S1(=O)=O
inactive: SNB-19 > 100 µM | KM12 > 100 µM | SR 79.3 µM | SW-620 > 100 µM | NCI-H460 > 100 µM | KM-20L2 > 100 µM | ACHN > 100 µM | OVCAR-5 > 100 µM | TK-10 61.5 µM | HCC 2998 18.4 µM | OVCAR-8 > 100 µM | HCT-116 > 100 µM | A498 39.7 µM | SNB-78 > 100 µM | HOP-62 > 100 µM | HOP-92 > 100 µM | A549 > 100 µM | SN12C > 100 µM | UO-31 > 100 µM | SK-MEL-2 > 100 µM | SNB-75 66.2 µM | NCI-H522 60 µM | Malme-3M 55.3 µM | RXF 393 > 100 µM | SK-MEL-5 > 100 µM | CAKI-1 16.6 µM | DMS-114 > 100 µM | OVCAR-4 > 100 µM | SF-539 > 100 µM | SK-OV-3 > 100 µM | LOX IMVI > 100 µM | DLD-1 > 100 µM | U-251 > 100 µM | LXFL 529 69.2 µM | SF-295 > 100 µM | IGROV-1 > 100 µM | CCRF-CEM 60 µM | COLO 205 13.6 µM | HL-60 25.2 µM | NCI-H226 19.4 µM | M14 > 100 µM | HT-29 > 100 µM | M19-MEL > 100 µM | RPMI-8226 64.3 µM | UACC-62 95.9 µM | 786-0 61 µM | UACC-257 > 100 µM | MOLT-4 > 100 µM | DMS-273 > 100 µM | K562 > 100 µM | SF-268 80.9 µM | HOP-18 > 100 µM
> 100 µM: HCT-15
